In paper PMC5361811, “Inhibition of human endogenous retrovirus-K by antiretroviral drugs” (Retrovirology, 2017):

System: T1, HERV-K protease
T1 construct: gene pro; retroviral aspartic protease of consensus HERV-K genome (from Gag-Pro-Pol polyprotein; synthetic, plasmid pCD-HK/Rev), acting in transfected HeLa or 293 cells and virions; homodimer by homology
Assay: virus production in transfected HeLa cells, RT activity in supernatant by PERT
Type: cell-based
Conditions: Homo sapiens, read-out: HERV-K IC50 (μM)
From the text: virus production in transfected HeLa cells, RT activity in supernatant by PERT on HERV-K protease

| Structure (SMILES) | IC50 [µM] |
| --- | --- |
| CC(C)CN(C[C@@H](O)[C@H](Cc1ccccc1)NC(=O)O[C@H]1CO[C@H]2OCC[C@H]21)S(=O)(=O)c1ccc(N)cc1 [Darunavir] | 0.029 |
| Cc1cccc(C)c1OCC(=O)N[C@@H](Cc1ccccc1)[C@@H](O)C[C@H](Cc1ccccc1)NC(=O)[C@H](C(C)C)N1CCCNC1=O [Lopinavir] | 0.034 |
